Starred links: 1 amine or outer side, 2 acyl side, 3 side chain; linkers in the order of their positions; H or OH if unused. Positions of bridges follow the written chain, without caps; N, C: chain ends. Non-standard residues stand in square brackets, D forms with d. Residues, ends and D or L forms follow the SMILES beside them. Chains are numbered I, II in the order given. Actinocin(9to1) = Cc1c2oc3c(C)ccc(C(=O)[*:1])c3nc-2c(C(=O)[*:2])c(N)c1=O; NMeV = CN[C@H](C(=O)O)C(C)C; Sar = CNCC(=O)O

Experimental findings from patent publication US11591324B2, “Retinoic acid receptor antagonists as chaperone-mediated autophagy modulators and uses thereof” (ALBERT EINSTEIN COLLEGE OF MEDICINE, priority 2013, dated 2023) are described below.

The subject of assay [1] is macroautophagy (LC3-II). The assay is described as follows: Macroautophagy: LC3-II levels and flux (immunoblot, mCherry-GFP-LC3). It is filed as cell-based. The note with it: mouse fibroblasts; retinoid derivatives 20 μM. The source says: (§1) Autophagic measurements. […] Lysosomes from cultured cells were isolated by similar procedures but using instead discontinuous metrizamide/percoll gradients after rupture of the plasma membrane through nitrogen cavitation^33.
To directly analyze macroautophagy, a widely accepted assay was used to measure activity of this pathway based on the analysis of the intracellular levels and degradation of the lipid-conjugated form of the light chain protein type 3 (LC3-II), a constitutive component of autophagosomes^29. Steady-state levels of LC3-II provide information on the amount of autophagosomes present in a cell at a given time, whereas the amount of LC3-II that accumulates upon blockage of lysosomal proteolysis allows measuring the efficiency of fusion and degradation of autophagic vacuoles by lysosomes (autophagic flux). […] Immunofluorescence for LC3 in these cells confirmed the presence of higher content of LC3-positive vesicles in the cells defective for RARα. These vesicles were confirmed to be autophagosomes using a double tagged form of LC3 (mCherry-GPF-LC3) that due to quenching of GFP fluorescence at low pH highlights autophagosomes in yellow and lysosomes in red. […] An increase in autophagosome content can result from increased formation of these organelles (autophagosome induction) or from reduced clearance of autophagosomes by lysosomes. To differentiate between both possibilities, the autophagic flux was compared in control and RARα (−) cells.
A general note: In western blotting, separated proteins are transferred to a membrane and probed.

Assay [2] addresses T1, RARα (Mus musculus, UniProt P11416).
T1 construct: endogenous in cells; host or cells: mouse fibroblasts (NIH3T3), inferred
T1 sequence (P11416 1-462): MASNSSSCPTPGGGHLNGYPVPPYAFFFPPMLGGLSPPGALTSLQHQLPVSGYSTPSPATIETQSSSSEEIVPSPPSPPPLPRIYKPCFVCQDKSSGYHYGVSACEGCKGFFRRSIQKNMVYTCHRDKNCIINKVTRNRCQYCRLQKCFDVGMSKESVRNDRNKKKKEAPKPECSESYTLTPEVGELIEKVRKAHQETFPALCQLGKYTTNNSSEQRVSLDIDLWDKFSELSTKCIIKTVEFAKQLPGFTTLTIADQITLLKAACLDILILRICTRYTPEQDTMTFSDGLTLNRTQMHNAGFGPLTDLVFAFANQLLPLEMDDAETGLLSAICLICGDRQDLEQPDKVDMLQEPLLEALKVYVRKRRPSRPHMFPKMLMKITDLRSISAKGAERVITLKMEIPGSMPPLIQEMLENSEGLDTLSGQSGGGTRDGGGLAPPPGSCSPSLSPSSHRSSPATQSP
The assay is described as follows: RARα translocation to the nucleus. It counts as cell-based.

In assay [3] the test system is chaperone-mediated autophagy (CMA). The assay can be described thus: High content microscopy CMA assay (KFERQ-PS-dendra reporter). It is filed as cell-based, mouse. To be noted: for basal versus stress-induced CMA activation: presence or absence of serum. The method, then:
CMA activity in mouse fibroblasts in culture was measured using a new version of a previously developed photoswitchable (PS) CMA fluorescent reporter^30 generated by addition of a CMA targeting motif to the PS-dendra protein (KFERQ-PS-dendra). Briefly, cells transduced with lentivirus carrying the reporter were photoactivated 24 h after transduction by exposure to a 3.5 mA (current constant), and 90V light emitting diode (LED: Norlux, 405 nm) for 9 min. Cells were plated in 96 well plates, subjected to the desired treatments and at the end of the experiment fixed in 4% paraformaldehyde. Images were captured with a high content microscope (Opperetta system, Perkin Elmer) and quantification was performed with the instrument software in a minimum of 200 cells or 9 fields.

Assay [4] relates to mouse fibroblasts transfected with α-synuclein. The assay is described as follows: α-synuclein plus PQ proteotoxicity (viability, immunoblot). To be noted: pre-treatment 20 μM before 1 mM PQ. It counts as cell-based. An excerpt: Maintained chronic oxidation is a common feature of aging and an aggravating factor in multiple degenerative disorders. To model the detrimental effect of oxidative stress on proteotoxicity and analyze the possible beneficial effect of enhancing CMA activity in these conditions, cells were transfected with α-synuclein, the protein that accumulates in the form of intracellular aggregates in Parkinson's disease (PD) and previously identified as a bonafide CMA substrate^9,10. Although mutations in this protein have been associated to the familial forms of the disease, in more than 98% of PD patients the protein that accumulates in the protein inclusions is wild type. Consequently, different intracellular factors and aggressors, including oxidative stress, have been proposed to contribute to the idiopathic forms of this pathology. […] Although the presence of α-synuclein alone was not toxic for these cells, the toxicity of a fixed concentration of PQ was clearly dependent on the concentration of this protein present in the cell. The concentration of PQ added to these cells was adjusted so that in cells expressing low levels of α-synuclein, its toxic effect was limited to no more than 20% reduction in cellular viability. […]

Assay [5] concerns the target T2, hRARα (Homo sapiens, UniProt P10276).
T2 construct: expressed in transfected cells; host or cells: mouse fibroblasts (NIH3T3)
The assay is described as follows: RARα activity, RAR-responsive luciferase reporter. It is filed as cell-based. The note with it: for RARα antagonist activity (inhibition of ATRA-dependent luciferase): in combination with 100 nM ATRA. The method, then: Measurement of RARα and RXR activity. A RAR-responsive luciferase construct was utilized to monitor the activity of RARα in cultured cells. Cells were co-transfected with pCMX-Gal-L-hRARα and a construct encoding the firefly luciferase reporter gene under the control of a minimal promoter and tandem repeats of the retinoic-acid response element (tk-px3-luc). Co-transfection with a renilla luciferase reporter plasmid was performed to control for efficiency of transfection. RXR activity was measured by similar procedures using co-transfection with pCMX-mRXR and tk-apoA1-luc. Compounds were added 24 h after transfection and 48 h later cells were lysed and assayed for luciferase activity using the Dual-Luciferase Reporter Assay System (Progmega). Luciferase values were normalized to the renilla luciferase reporter.
To determine the effect of these molecules on RAR signaling, cells were co-transfected cells with a plasmid coding for RAR fused to the Gal4 DNA-binding domain and a Gal4-dependent luciferase reporter.
(In a reporter assay the amount or activity of a reporter protein is the signal.)

For assay [6], the system named is chaperone-mediated autophagy (CMA). The assay is described as follows: CMA reporter assay (photoactivable KFERQ-PA-mCherry1 reporter). It is filed as cell-based, mouse. The note with it: for CMA activity (fluorescent puncta per cell, CMA reporter): mouse fibroblasts, 20 μM.
Description: as §1
CMA reporter assay. The photoactivable CMA reporter was constructed by inserting a sequence of 21 amino acids of Ribonuclease A bearing the CMA-targeting motif in the N-terminus multicloning site of the photoactivable protein mCherry1 (PA-mCherry1)^30. […] All images were acquired with a high-resolution CCD camera after optical sectioning through the apotome. Images were prepared using Adobe Photoshop 6.0 software (Adobe Systems). Quantification was performed in individual frames after deconvolution and thresholding using ImageJ software (NIH) in a minimum of 50 cells.
Because the observed downregulation of macroautophagy upon RARα knock-down cannot explain the increase in lysosomal degradation observed in these cells (FIG. 1c), the effect of this intervention on CMA was measured. Activation of this selective autophagic pathway can be determined using a photoactivable (PA) reporter fused to the CMA-targeting motif (KFERQ-PA-mcherry1)^30. Activation of CMA favors mobilization of this artificial CMA substrate from the cytosol to lysosomes, which can be tracked as a change in the reporter fluorescence from a diffuse to a punctate pattern^30.

Assay [7] has as its system mouse fibroblasts (NIH3T3). The assay can be described thus: Intracellular protein degradation (metabolic labeling, pulse chase).
For assay [8], the system named is LAMP-2A. The assay is described as follows: LAMP-2A mRNA levels (quantitative real time PCR). For orientation: Real-time PCR tracks product formation cycle by cycle.

T2 sequence (P10276 with tags, fused parts or gaps limits assumed): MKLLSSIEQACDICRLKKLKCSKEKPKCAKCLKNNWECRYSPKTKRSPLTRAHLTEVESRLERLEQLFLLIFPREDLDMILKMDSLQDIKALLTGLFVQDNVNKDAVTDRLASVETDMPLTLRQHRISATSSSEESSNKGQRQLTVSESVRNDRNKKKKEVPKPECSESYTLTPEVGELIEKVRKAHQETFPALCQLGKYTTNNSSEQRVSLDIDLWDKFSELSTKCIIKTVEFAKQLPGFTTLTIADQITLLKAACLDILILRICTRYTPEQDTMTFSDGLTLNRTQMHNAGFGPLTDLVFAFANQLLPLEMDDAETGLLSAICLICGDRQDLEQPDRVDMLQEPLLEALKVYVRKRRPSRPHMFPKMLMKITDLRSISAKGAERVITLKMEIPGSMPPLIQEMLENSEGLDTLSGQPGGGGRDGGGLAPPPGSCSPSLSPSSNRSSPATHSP

With `Cc1ccc(C2=Nc3ccc(Cl)cc3OC2)cc1` [AR7], the “macroautophagy: LC3 steady state levels and lysosomal flux” value in assay [1] is “absence of effect on other autophagic pathways”. In assay [2], the “RARα relocation to the nucleus” value is on record as “sufficient to stimulate some relocation of cytosolic RARα to the nucleus”. Also, the “basal versus stress-induced CMA activation” value in assay [3] is recorded as “only activated basal CMA”. Further, the “cellular viability of α-synuclein-transfected cells treated with PQ” value in assay [4] is on record as “significant increases in cellular viability”. Moreover, in assay [5], the “RARα antagonist activity (inhibition of ATRA-dependent luciferase)” value is “among the most potent antagonist compounds in the library”. Moreover, the “CMA activity (fluorescent puncta per cell, CMA reporter)” value in assay [6] (presence of serum) is “marked activation of CMA activity”.
Turning to `CC1=C(/C=C/C(C)=C/C=C/C(C)=C/C(=O)O)C(C)(C)CCC1` [ATRA, all-trans-retinoic acid], the “macroautophagy: LC3 steady state levels and lysosomal flux” value in assay [1] is on record as “no significant changes in steady state levels of LC3 or in its lysosomal flux”. The “protein degradation in response to prolonged serum removal” value in assay [7] (40 μM ATRA, absence of serum) is reported as “significantly reduced the increase in protein degradation”. The “lysosomal degradation (sensitive to inhibitors of lysosomal proteolysis)” value in assay [7] (40 μM ATRA, basal and inducible) is “both basal and inducible lysosomal degradation were significantly compromised”. Further, the “total rates of protein degradation, basal” value in assay [7] (40 μM ATRA, presence of serum) was “did not affect total rates of protein degradation under basal conditions”. Besides, the “inhibitory effect on autophagic degradation of cytosolic proteins in RARα (−) cells” value in assay [7] (ATRA, RARα knock-down) is “still detectable when RARα (−) cells were supplemented with ATRA”. For the same compound, the “LAMP-2A mRNA levels, serum deprived” value in assay [8] (ATRA added to cells deprived of serum) is “significant decrease in LAMP-2A mRNA”. For the same compound, the “LAMP-2A mRNA levels, basal” value in assay [8] (ATRA, basal conditions) is given as “No changes in LAMP-2A mRNA levels”. For the same compound, the “RARα agonist activity (luciferase)” value in assay [5] (compound alone) is “dose-dependent activation”. Moreover, the “basal CMA” value in assay [6] (ATRA treatment, presence of serum) is listed as “did not have a noticeable effect on basal CMA”. In assay [6] (ATRA treatment, serum removal), the “activation of CMA in response to serum removal” value is given as “significantly reduced the activation of this pathway in response to serum removal”. Besides, the “effect on CMA activity in RARα (−) cells” value in assay [6] (RARα knock-down mouse fibroblasts) is “no longer inhibited CMA activity in RARα (−) cells”.
On to `Cc1c2oc3c(C)ccc(C(=O)N[C@@H]4C(=O)N[C@H](C(C)C)C(=O)N5CCC[C@H]5C(=O)N(C)CC(=O)N(C)[C@@H](C(C)C)C(=O)O[C@@H]4C)c3nc-2c(C(=O)N[C@@H]2C(=O)N[C@H](C(C)C)C(=O)N3CCC[C@H]3C(=O)N(C)CC(=O)N(C)[C@@H](C(C)C)C(=O)O[C@@H]2C)c(N)c1=O` [Actinomycin D] (I: T[dV]P[Sar][NMeV] / II: T[dV]P[Sar][NMeV]; ester I:1-I:C, II:1-II:C; linker I:N-II:N via Actinocin(9to1)), for which, in assay [6] (AR7 plus Actinomycin D), the “stimulatory effect of AR7 on CMA under transcriptional repression” value was “partially reduced the stimulatory effect of AR7 on CMA”.
`CC1(C)CC=C(c2cnc3ccccc3c2)c2cc(C(=O)Nc3ccc(C(=O)O)cc3)ccc21` [BMS614]: the “macroautophagy: LC3 steady state levels and lysosomal flux” value in assay [1] is recorded as “inhibited macroautophagy”. Further, in assay [6] (presence of serum), the “CMA activity (fluorescent puncta per cell, CMA reporter)” value was “also enhanced CMA activity”.
As for `CC1=CC(=Cc2ccc(C(=O)NC(=N)N)cc2)CC(C)(C)C1` [GR1, N-[4-(3,5,5-trimethyl-cyclohex-2-enylidenemethyl)-benzoyl]-guanidine], the “macroautophagy: LC3 steady state levels and lysosomal flux” value in assay [1] is listed as “absence of effect on other autophagic pathways”. Besides, the “CMA activity (fluorescent puncta per cell, CMA reporter)” value in assay [6] (presence of serum) was “marked activation of CMA activity”.
For the compound `CC1=CC(=Cc2ccc(C(=O)NC(=N)N)cc2)CCC1` [GR2, N-[4-(3-methyl-cyclohex-2-enylidenemethyl)-benzoyl]-guanidine], in assay [1], the “macroautophagy: LC3 steady state levels and lysosomal flux” value is given as “absence of effect on other autophagic pathways”. The “RARα antagonist activity (inhibition of ATRA-dependent luciferase)” value in assay [5] is on record as “among the most potent antagonist compounds in the library”. The “CMA activity (fluorescent puncta per cell, CMA reporter)” value in assay [6] (presence of serum) is reported as “marked activation of CMA activity”.
For `Clc1ccc2c(c1)OCC(c1ccc(-c3ccccc3)cc1)=N2` [QX39], the “CMA activation potency relative to AR7” value in assay [3] (cultured cells, photoactivatable CMA reporter) was 2-3 fold. Further, the “basal versus stress-induced CMA activation” value in assay [3] was “activated both basal and stress-induced CMA”.
